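Method: 48-hour compound exposure of cells in 96-well plates, five concentrations, linear interpolation of endpoints. GI50 is the concentration that inhibits growth by half.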 The source made the active and inactive calls. Cut-off read from the data, not from the text of the source: active = GI50 up to about 1.1 µM and inactive = higher.
What was measured:
Test in all cases: DTP human tumour cell line panel, 48 h
[1] = test system: 786-0
[2] = test system: A498
[3] = test system: A549
[4] = test system: ACHN
[5] = test system: BT-549
[6] = test system: CCRF-CEM
[7] = test system: COLO 205
[8] = test system: DU-145
[9] = test system: EKVX
[10] = test system: HCT-116
[11] = test system: HCT-15
[12] = test system: HL-60
[13] = test system: HOP-62
[14] = test system: HOP-92
[15] = test system: HT-29
[16] = test system: Hs-578T
[17] = test system: IGROV-1
[18] = test system: K562
[19] = test system: KM12
[20] = test system: M14
[21] = test system: MCF7
[22] = test system: MDA-MB-231
[23] = test system: MDA-MB-435
[24] = test system: MDA-N
[25] = test system: MOLT-4
[26] = test system: Malme-3M
[27] = test system: NCI-H226
[28] = test system: NCI-H23
[29] = test system: NCI-H460
[30] = test system: NCI-H522
[31] = test system: NCI/ADR-RES
[32] = test system: OVCAR-3
[33] = test system: OVCAR-4
[34] = test system: OVCAR-5
[35] = test system: OVCAR-8
[36] = test system: PC-3
[37] = test system: RPMI-8226
[38] = test system: RXF 393
[39] = test system: SF-268
[40] = test system: SF-295
[41] = test system: SF-539
[42] = test system: SK-MEL-28
[43] = test system: SK-MEL-2
[44] = test system: SK-OV-3
[45] = test system: SN12C
[46] = test system: SNB-19
[47] = test system: SNB-75
[48] = test system: SR
[49] = test system: SW-620
[50] = test system: TK-10
[51] = test system: U-251
[52] = test system: UACC-257
[53] = test system: UACC-62
[54] = test system: UO-31

Which results are given for `O=C(O)c1cc2cc(c1)/N=C/c1ccccc1OCc1cccc(n1)COc1ccccc1/C=N/2`?
GI50 [1]: 10.6 µM (inactive); GI50 [2]: > 25 µM (inactive); GI50 [3]: > 25 µM (inactive); GI50 [4]: 23.2 µM (inactive); GI50 [5]: 23.6 µM (inactive); GI50 [6]: 9.71 µM (inactive); GI50 [7]: > 25 µM (inactive); GI50 [8]: > 25 µM (inactive); GI50 [9]: > 25 µM (inactive); GI50 [10]: 9.14 µM (inactive); GI50 [11]: 8.45 µM; GI50 [12]: 12.2 µM (inactive); GI50 [13]: > 25 µM (inactive); GI50 [14]: 6.73 µM (inactive); GI50 [15]: 19 µM (inactive); GI50 [16]: 4.94 µM (inactive); GI50 [17]: 20.4 µM (inactive); GI50 [18]: 10.1 µM (inactive); GI50 [19]: 13 µM (inactive); GI50 [20]: 11.1 µM (inactive); GI50 [21]: 6.79 µM (inactive); GI50 [22]: > 25 µM (inactive); GI50 [23]: 3.78 µM (inactive); GI50 [24]: 4.53 µM (inactive); GI50 [25]: 20 µM (inactive); GI50 [26]: 3.64 µM (inactive); GI50 [27]: 10.9 µM (inactive); GI50 [28]: > 25 µM (inactive); GI50 [29]: > 25 µM (inactive); GI50 [30]: > 25 µM (inactive); GI50 [31]: 5.93 µM (inactive); GI50 [32]: 5.11 µM (inactive); GI50 [33]: 12.2 µM (inactive); GI50 [34]: > 25 µM (inactive); GI50 [35]: > 25 µM (inactive); GI50 [36]: 24 µM (inactive); GI50 [37]: 7.41 µM (inactive); GI50 [38]: > 25 µM (inactive); GI50 [39]: 13.2 µM (inactive); GI50 [40]: 6.24 µM (inactive); GI50 [41]: 8.17 µM (inactive); GI50 [42]: 23.3 µM (inactive); GI50 [43]: 23.8 µM (inactive); GI50 [44]: > 25 µM (inactive); GI50 [45]: 14.8 µM (inactive); GI50 [46]: 17.3 µM (inactive); GI50 [47]: > 25 µM (inactive); GI50 [48]: 6.38 µM (inactive); GI50 [49]: 9.68 µM (inactive); GI50 [50]: 13.6 µM (inactive); GI50 [51]: 7.66 µM (inactive); GI50 [52]: > 25 µM (inactive); GI50 [53]: 8.45 µM (inactive); GI50 [54]: > 25 µM (inactive)
